From ChEMBL document CHEMBL1201862, “PubChem BioAssay data set” (2004)
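Exposure lasted 48 hours, with cells grown in 96-well plates and compounds tested at five concentrations. Here, GI50 denotes the concentration required for 50% inhibition of growth.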 Active and inactive are the calls of the source. Cut-off read from the data, not from the text of the source: active = GI50 up to about 1.1 µM and inactive = higher.

Experiments:
Test in all cases: growth of human tumour cells (NCI), 48 h
[1] = test system: A549
[2] = test system: CAKI-1
[3] = test system: DU-145
[4] = test system: HCT-15
[5] = test system: HL-60
[6] = test system: HOP-92
[7] = test system: K562
[8] = test system: KM12
[9] = test system: M14
[10] = test system: MDA-MB-231
[11] = test system: OVCAR-5
[12] = test system: RXF 393
[13] = test system: SF-539
[14] = test system: SK-MEL-28
[15] = test system: SK-MEL-2
[16] = test system: SK-OV-3
[17] = test system: SNB-75
[18] = test system: SW-620
[19] = test system: UACC-257
[20] = test system: UO-31

| Compound | GI50 [1] | GI50 [2] | GI50 [3] | GI50 [4] [µM] | GI50 [5] | GI50 [6] | GI50 [7] | GI50 [8] | GI50 [9] | GI50 [10] | GI50 [11] | GI50 [12] | GI50 [13] | GI50 [14] | GI50 [15] | GI50 [16] | GI50 [17] | GI50 [18] | GI50 [19] | GI50 [20] |
| --- | --- | --- | --- | --- | --- | --- | --- | --- | --- | --- | --- | --- | --- | --- | --- | --- | --- | --- | --- | --- |
| CCCC(=O)Nc1cc(/C=C/C(=O)N2CC(CCl)c3c2cc(O)c2[nH]cc(C)c32)n(C)c1 (stereo not given) | < 2.5e-05 µM (active) | < 2.5e-05 µM (active) | < 2.5e-05 µM (active) | 0.000117 | < 2.5e-05 µM (active) | < 2.5e-05 µM (active) | 3.79e-05 µM (active) | < 2.5e-05 µM (active) | < 2.5e-05 µM (active) | < 2.5e-05 µM (active) | < 2.5e-05 µM (active) | < 2.5e-05 µM (active) | < 2.5e-05 µM (active) | < 2.5e-05 µM (active) | < 2.5e-05 µM (active) | < 2.5e-05 µM (active) | < 2.5e-05 µM (active) | < 2.5e-05 µM (active) | < 2.5e-05 µM (active) | < 2.5e-05 µM (active) |
| CCN(CC)CCCNc1c2cc(OC)ccc2nc2cccc([N+](=O)[O-])c12 | 0.065 µM (active) | 0.21 µM (active) | 0.0551 µM (active) | 0.0676 | 0.158 µM (active) | 0.0484 µM (active) | 0.00643 µM (active) | 0.11 µM (active) | 0.0938 µM (active) | 0.122 µM (active) | 0.0832 µM (active) | 0.0557 µM (active) | 0.141 µM (active) | 0.231 µM (active) | 0.101 µM (active) | 0.246 µM (active) | 0.151 µM (active) | 0.0352 µM (active) | 0.227 µM (active) | 0.0402 µM (active) |
| COc1ccc(/C(Cl)=C(\C=O)c2ccc([N+](=O)[O-])cc2)cc1OC | 24.7 µM (inactive) | 9.08 µM (inactive) | 19.2 µM (inactive) | 5 | 2.7 µM (inactive) | 7.28 µM (inactive) | 3.62 µM (inactive) | 20.4 µM (inactive) | 7.28 µM (inactive) | 13.8 µM (inactive) | 5.13 µM (inactive) | 3.76 µM (inactive) | 12.5 µM (inactive) | 13.1 µM (inactive) | 21 µM (inactive) | 26.7 µM (inactive) | 3.62 µM (inactive) | 6.12 µM (inactive) | 11.5 µM (inactive) | 12.2 µM (inactive) |
| O=C1CS(=O)(=O)C(c2cccc(Oc3ccccc3)c2)N1C1CC1 (stereo not given) | 35.6 µM (inactive) | 0.045 µM (active) | 63.2 µM (inactive) | 30.3 | 30.8 µM (inactive) | 23.4 µM (inactive) | 50.9 µM (inactive) | 31.4 µM (inactive) | 41.1 µM (inactive) | 75.2 µM (inactive) | 62.2 µM (inactive) | 22 µM (inactive) | 50.9 µM (inactive) | 90.6 µM (inactive) | 45.1 µM (inactive) | 33.3 µM (inactive) | 24.8 µM (inactive) | 60.5 µM (inactive) | 33.2 µM (inactive) | 27.6 µM (inactive) |
| CCOC(=O)C1=NN(c2ccc(C)cc2)C2(c3ccccc3)C=C(c3ccccc3)N(C)CCN12 (stereo not given) | > 100 µM (inactive) | > 100 µM (inactive) | > 100 µM (inactive) | > 100 | 30.7 µM (inactive) | > 100 µM (inactive) | 71 µM (inactive) | 48.5 µM (inactive) | > 100 µM (inactive) | > 100 µM (inactive) | > 100 µM (inactive) | > 100 µM (inactive) | > 100 µM (inactive) | > 100 µM (inactive) | > 100 µM (inactive) | > 100 µM (inactive) | > 100 µM (inactive) | > 100 µM (inactive) | 62.4 µM (inactive) | > 100 µM (inactive) |
| CCC/N=C/c1c(O)c(O)c(C(C)C)c2cc(C)c(-c3c(C)cc4c(C(C)C)c(O)c(O)c(/C=N/CCC)c4c3O)c(O)c12 | 8.05 µM (inactive) | 25.8 µM (inactive) | 23.8 µM (inactive) | 7.46 | 3.01 µM (inactive) | 2.49 µM (inactive) | 2.96 µM (inactive) | 3.45 µM (inactive) | 7.41 µM (inactive) | 13.9 µM (inactive) | 10 µM (inactive) | 3.54 µM (inactive) | 5.65 µM (inactive) | 12.6 µM (inactive) | 2.76 µM (inactive) | 4.75 µM (inactive) | 8.79 µM (inactive) | 6.55 µM (inactive) | 9.59 µM (inactive) | 6.3 µM (inactive) |
| Clc1ccc(CCNC2(c3cc4ccccc4s3)CCCCC2)cc1Cl | 47.8 µM (inactive) | 29.5 µM (inactive) | 32.9 µM (inactive) | 15.3 | 16.7 µM (inactive) | 3.84 µM (inactive) | 15.5 µM (inactive) | 21.8 µM (inactive) | 23.8 µM (inactive) | 21.1 µM (inactive) | 19.5 µM (inactive) | 17.7 µM (inactive) | 16.9 µM (inactive) | 25.2 µM (inactive) | 19 µM (inactive) | 29.6 µM (inactive) | 14.2 µM (inactive) | 34.7 µM (inactive) | 19 µM (inactive) | 16.6 µM (inactive) |
| CCOP(=O)(OCC)C(=C1C=C(C(C)(C)C)C(=O)C(C(C)(C)C)=C1)P(=O)(OCC)OCC | > 10 µM (inactive) | 3.33 µM (inactive) | > 10 µM (inactive) | 3.1 | 3.53 µM (inactive) | 2.39 µM (inactive) | > 4.8 µM (inactive) | > 10 µM (inactive) | 1.97 µM (inactive) | > 9.27 µM (inactive) | > 10 µM (inactive) | 4.97 µM (inactive) | > 10 µM (inactive) | > 10 µM (inactive) | > 10 µM (inactive) | > 10 µM (inactive) | > 10 µM (inactive) | 1.89 µM (inactive) | > 8.15 µM (inactive) | > 10 µM (inactive) |
| CSCCC(NCc1c(O)ccc2c(-c3ccccc3)cc(=O)oc12)C(=O)O (stereo not given) | > 100 µM (inactive) | > 100 µM (inactive) | > 100 µM (inactive) | > 100 | > 100 µM (inactive) | > 100 µM (inactive) | > 100 µM (inactive) | > 100 µM (inactive) | > 100 µM (inactive) | > 100 µM (inactive) | > 100 µM (inactive) | > 100 µM (inactive) | > 100 µM (inactive) | > 100 µM (inactive) | > 100 µM (inactive) | > 100 µM (inactive) | > 100 µM (inactive) | > 100 µM (inactive) | > 100 µM (inactive) | > 100 µM (inactive) |
| CC/C(Cl)=N\OC(=O)Nc1ccc(F)c(Cl)c1 | 21.3 µM (inactive) | 5.21 µM (inactive) | 19.7 µM (inactive) | 15.2 | 1.83 µM (inactive) | 4.38 µM (inactive) | 1.84 µM (inactive) | 17.2 µM (inactive) | 2.38 µM (inactive) | 20 µM (inactive) | 16.5 µM (inactive) | 12.1 µM (inactive) | 19.8 µM (inactive) | 15.6 µM (inactive) | 17.3 µM (inactive) | 18.5 µM (inactive) | 12.2 µM (inactive) | 2.55 µM (inactive) | 17.3 µM (inactive) | 18.3 µM (inactive) |
